Experimental data as given in patent US20250179052A1, “PYRIMIDINYL-OXY-QUINOLINE BASED HERBICIDAL COMPOUNDS” (SYNGENTA CROP PROTECTION AG, priority 2022, published 2025).

What was measured:
Details in all cases: 250 g/ha, evaluated after 13 days, five-point scale
[1] = system: Echinochloa crus-galli (ECHCG); assay: Pre-emergence herbicidal glasshouse test; type: in vivo
[2] = system: Amaranthus retoflexus (AMARE); assay: Post-emergence herbicidal glasshouse test; type: in vivo
[3] = system: Ipomoea hederacea (IPOHE); assay: Post-emergence herbicidal glasshouse test; type: in vivo
AMAPA [4] = assay: Post-emergence herbicidal glasshouse test; type: in vivo, Amaranthus tuberculatus
Setaria faberi (SETFA) [5] = assay: Pre-emergence herbicidal glasshouse test; type: in vivo
AMAPA [6] = assay: Pre-emergence herbicidal glasshouse test; type: in vivo, Amaranthus tuberculatus
[7] = system: Ipomoea hederacea (IPOHE); assay: Pre-emergence herbicidal glasshouse test; type: in vivo
Setaria faberi (SETFA) [8] = assay: Post-emergence herbicidal glasshouse test; type: in vivo
[9] = system: Amaranthus retoflexus (AMARE); assay: Pre-emergence herbicidal glasshouse test; type: in vivo
[10] = system: Echinochloa crus-galli (ECHCG); assay: Post-emergence herbicidal glasshouse test; type: in vivo

Structure (SMILES)	percentage damage caused to the plant, ECHCG [1]	percentage damage caused to the plant, AMARE [2]	percentage damage caused to the plant, IPOHE [3]	percentage damage caused to the plant, AMAPA (AMAPA [4])	percentage damage caused to the plant, SETFA (Setaria faberi (SETFA) [5])	percentage damage caused to the plant, AMAPA (AMAPA [6])	percentage damage caused to the plant, IPOHE [7]	percentage damage caused to the plant, SETFA (Setaria faberi (SETFA) [8])	percentage damage caused to the plant, AMARE [9]	percentage damage caused to the plant, ECHCG [10]
FC(F)c1ncc2c(Oc3ncc(Cl)cn3)cccc2n1 [Compound 1.019]	5 (5=81-100%)	4 (4=61-80%)	4 (4=61-80%)	3 (3=41-60%)	5 (5=81-100%)	5 (5=81-100%)	4 (4=61-80%)	3 (3=41-60%)	5 (5=81-100%)	2 (2=21-40%)
FC(F)(F)c1ccc2c(Oc3ncc(Cl)cn3)cccc2n1 [Compound 1.020, 5-(5-chloropyrimidin-2-yl)oxy-2 (trifluoromethyl)quinoline]	5 (5=81-100%)	5 (5=81-100%)	4 (4=61-80%)	5 (5=81-100%)	5 (5=81-100%)	5 (5=81-100%)	4 (4=61-80%)	5 (5=81-100%)	5 (5=81-100%)	4 (4=61-80%)
Cc1cc(C(F)(F)F)nc2cccc(Oc3ncc(Cl)cn3)c12 [Compound 1.021]	1 (1=0-20%)	3 (3=41-60%)	2 (2=21-40%)	2 (2=21-40%)	1 (1=0-20%)	1 (1=0-20%)	1 (1=0-20%)	1 (1=0-20%)	1 (1=0-20%)	1 (1=0-20%)
Clc1cnc(Oc2cccc3ccncc23)nc1 [Compound 1.022]	1 (1=0-20%)	1 (1=0-20%)	1 (1=0-20%)	2 (2=21-40%)	1 (1=0-20%)	1 (1=0-20%)	1 (1=0-20%)	1 (1=0-20%)	1 (1=0-20%)	1 (1=0-20%)
Cc1cnc(Oc2cccc3nc(C(F)(F)F)ccc23)nc1 [Compound 1.040]	5 (5=81-100%)	4 (4=61-80%)	5 (5=81-100%)	4 (4=61-80%)	5 (5=81-100%)	5 (5=81-100%)	5 (5=81-100%)	4 (4=61-80%)	5 (5=81-100%)	4 (4=61-80%)
FC(F)(F)c1ccc2c(Oc3ncc(Br)cn3)cccc2n1 [Compound 1.041]	3 (3=41-60%)	5 (5=81-100%)	3 (3=41-60%)	5 (5=81-100%)	4 (4=61-80%)	5 (5=81-100%)	2 (2=21-40%)	4 (4=61-80%)	5 (5=81-100%)	2 (2=21-40%)
FC(F)(Cl)c1ncc2c(Oc3ncc(Cl)cn3)ccc(Cl)c2n1 [Compound 1.044]	2 (2=21-40%)	3 (3=41-60%)	2 (2=21-40%)	3 (3=41-60%)	5 (5=81-100%)	5 (5=81-100%)	1 (1=0-20%)	3 (3=41-60%)	3 (3=41-60%)	1 (1=0-20%)
Cc1ccc(Oc2ncc(Br)cn2)c2cnc(C(F)(F)Cl)nc12 [Compound 1.047]	1 (1=0-20%)	2 (2=21-40%)	2 (2=21-40%)	2 (2=21-40%)	1 (1=0-20%)	2 (2=21-40%)	1 (1=0-20%)	1 (1=0-20%)	2 (2=21-40%)	1 (1=0-20%)
